Results published in US5204343A, “5H-benzodiazepin derivative” (Egis Gyogyszergyar, priority 1990, dated 1993).
“Also recorded” adds a separate entry of the source.

Legend:
mice [1] = assay: Behaviour test on mice (method of Irwin); assay type: in vivo
Excerpt: The effects of the compound of formula (I) and the reference compound (girisopam) were examined by the method of Irwin [Psychopharmacol. 13, 222 (1968)].

[2] = Anxiolytic, antiaggressive and antidepressant effects, overall statement; assay type: in vivo; conditions: vs girisopam
mice [3] = assay: Narcosis potentiating effect on mice (hexobarbital-Na); assay type: in vivo; conditions: for Prolongation of narcosis time: hexobarbital-Na 50 mg/kg i.v.
Protocol: The prolongation of the narcosis time was related to the sleeping time of the control group treated with a 50 mg/kg i.v. dose of hexobarbital-Na. The test compound was administered […].

Acute toxicity, rat = assay: Acute toxicity, rat; design: species or system rat (male, CFY strain); conditions: in vivo, ip, 14 days observation
Protocol: (§1) The experiments were carried out on male mice belonging to the CFLP strain (body weight: 20-22 g) and on male rats belonging to the CFY strain. […] The LD50 values were determined with the aid of the method of Lichtfield and Wilcoxon [J. Pharmacol. Exp. Ther. 96, 99 (1949)]. The compounds were suspended in 2 to 5% Tween 80. The animals were treated in volumes of 0.1 ml/10 g (mice) and 0.5 ml/100 g (rats).

[4] = Acute toxicity, overall statement; assay type: in vivo; conditions: vs girisopam
Protocol: as §1

rats = assay: Anxiolytic effect on rats ("lick-conflict" test of Vogel); assay type: in vivo; conditions: for Numbers of shocks tolerated: 50 mg/kg i.p., pretreatment 30 minutes, vehicle 5.7 ± 0.6 (formula (I) series), 5.1 ± 0.9 (girisopam series); for number of tolerated shocks, result in words: same dose (50 mg/kg i.p.)
Protocol: The anxiolytic effect was investigated according to the so-called "lick-conflict" test of Vogel [Psychopharmacol. 21, 1 (1971)]. Time of pretreatment: 30 minutes.

[5] = Pharmacological experiments, overall (spectrum, potency, therapeutical index); assay type: in vivo; conditions: vs girisopam
mice [6] = assay: Antiaggressive effect on mice ("fighting behaviour" test of Tedeschi et al.); assay type: in vivo; conditions: Mus musculus, confidence limit in separate column
Excerpt: The antiaggressive effect was examined by the method of Tedeschi et al. (the so-called "fighting behaviour" test) [J. Pharm. Exp. Ther. 25, 28 (1959)].

Acute toxicity, mouse = assay: Acute toxicity, mouse; design: species or system mouse (male, CFLP strain); conditions: in vivo, 14 days observation
Protocol: as §1

[7] = Muscle relaxant and anticonvulsive effects; conditions: in vivo
[8] = vs Grandaxin (tofisopam); cited from earlier work

SMILES | spontaneous motor activity (SMA) after 60 minutes (mice [1]; 100 mg/kg i.p.) | spontaneous motor activity (SMA) after 120 minutes (mice [1]; 100 mg/kg i.p.) | spontaneous motor activity (SMA) after 180 minutes (mice [1]; 100 mg/kg i.p.) | spontaneous motor activity (SMA) after 60 minutes (mice [1]; 200 mg/kg p.o.) | spontaneous motor activity (SMA) after 120 minutes (mice [1]; 200 mg/kg p.o.) | spontaneous motor activity (SMA) after 180 minutes (mice [1]; 200 mg/kg p.o.) | Prolongation of narcosis time (mice [3]; 25 mg/kg p.o.) [%] | Prolongation of narcosis time (mice [3]; 50 mg/kg p.o.) [%] | LD50 at 336 h (Acute toxicity, rat) [mg/kg] | Numbers of shocks tolerated (rats) | number of tolerated shocks, result in words (rats) | ED50 (mice [6]) [mg/kg] | LD50 at 336 h (Acute toxicity, mouse; ip) [mg/kg] | LD50 at 336 h (Acute toxicity, mouse; po) [mg/kg] | also measured
COc1cc2c(cc1OC)C(c1cccc(Cl)c1)=NN=C(CO)C2 [Compound of formula (I), 1-(3-chlorophenyl)-4-hydroxymethyl-7,8-dimethoxy-5H-2,3-benzodiazepine] | SMA.dwnarw. | SMA.dwnarw. | SMA.dwnarw. | SMA.dwnarw. | SMA.dwnarw. | SMA.dwnarw. | 232 | 444 | > 1500 | 13.8 ± 3.7 | significant increase on the number of tolerated shocks | 13.8 | 1310 | > 2000 | decrease of spontaneous motor activity, compared with reference compound (mice [1]; mice, vs girisopam): decreases the spontaneous motor activity on mice to the same degree as the reference compound; anxiolytic, antiaggressive and antidepressant effects [2]: as strong anxiolytic, antiaggressive and antidepressant effects as girisopam; Prolongation of narcosis time (mice [3]; 12.5 mg/kg p.o.): 145%; narcosis potentiating activity compared with reference compound (mice [3]; p.o. doses 25 mg/kg and 50 mg/kg, vs girisopam): practically as significant as that of the reference compound (girisopam) or even superior; acute toxicity compared with reference compound [4]: considerably more favourable on both kinds of animals than that of the reference compound; also recorded: their acute toxicity is superior; spectrum of activity and potency [5]: as favourable as those of the reference compound (girisopam); therapeutical index compared with reference compound [5]: more favourable than the reference compound; muscle relaxant and anticonvulsive effects [7]: do not show muscle relaxant and anticonvulsive effects
COc1cc2c(cc1OC)C(c1cccc(Cl)c1)=NN=C(C)C2 [Girisopam, 1-(3-chlorophenyl)-4-methyl-7,8-dimethoxy-5H-2,3-benzodiazepine, reference compound] | SMA.dwnarw. | SMA.dwnarw. | SMA.dwnarw. | SMA.dwnarw. | SMA.dwnarw. | SMA.dwnarw. | 305 | 392 | 670 | 19.0 ± 2.3 | significant increase on the number of tolerated shocks | 16 | 330 | 1250 | effectiveness compared with Grandaxin [8]: five times more effective than the latter
